Test results: patent US20130197189A1, “Method For Synthesizing A Cyclic Multivalent Peptide Using A Thiol-Mediated Reaction” (The Regents of the University of Colorado, A Body Corporate, priority 2010, published 2013)
Read-outs that look alike come from different tables or passages of the source. *1 amine or outer side, *2 acyl side, *3 side chain or, on linkers, in order; H or OH if unused. Where a SMILES comes first, the peptide text is derived from it. Bridges are numbered along the chain shown (N, C = ends). [ ]: non-standard residue; d: D form. X2 = O=C(C1CC2CC1C([*:1])C2)[*:2]; X1 = O=C(OCCC[*:1])[*:2]

Legend:
GPIIb/IIIa = target: T1, GPIIb/IIIa (Homo sapiens, UniProt P05106+P08514); assay: Fibrinogen binding ELISA (competitive binding ELISA: inhibition of fibrinogen binding to GPIIb/IIIa)
T1 construct: purchased Enzyme Research Laboratories (South Bend, Ind.)
T1 sequence (P08514 32-887 limits assumed): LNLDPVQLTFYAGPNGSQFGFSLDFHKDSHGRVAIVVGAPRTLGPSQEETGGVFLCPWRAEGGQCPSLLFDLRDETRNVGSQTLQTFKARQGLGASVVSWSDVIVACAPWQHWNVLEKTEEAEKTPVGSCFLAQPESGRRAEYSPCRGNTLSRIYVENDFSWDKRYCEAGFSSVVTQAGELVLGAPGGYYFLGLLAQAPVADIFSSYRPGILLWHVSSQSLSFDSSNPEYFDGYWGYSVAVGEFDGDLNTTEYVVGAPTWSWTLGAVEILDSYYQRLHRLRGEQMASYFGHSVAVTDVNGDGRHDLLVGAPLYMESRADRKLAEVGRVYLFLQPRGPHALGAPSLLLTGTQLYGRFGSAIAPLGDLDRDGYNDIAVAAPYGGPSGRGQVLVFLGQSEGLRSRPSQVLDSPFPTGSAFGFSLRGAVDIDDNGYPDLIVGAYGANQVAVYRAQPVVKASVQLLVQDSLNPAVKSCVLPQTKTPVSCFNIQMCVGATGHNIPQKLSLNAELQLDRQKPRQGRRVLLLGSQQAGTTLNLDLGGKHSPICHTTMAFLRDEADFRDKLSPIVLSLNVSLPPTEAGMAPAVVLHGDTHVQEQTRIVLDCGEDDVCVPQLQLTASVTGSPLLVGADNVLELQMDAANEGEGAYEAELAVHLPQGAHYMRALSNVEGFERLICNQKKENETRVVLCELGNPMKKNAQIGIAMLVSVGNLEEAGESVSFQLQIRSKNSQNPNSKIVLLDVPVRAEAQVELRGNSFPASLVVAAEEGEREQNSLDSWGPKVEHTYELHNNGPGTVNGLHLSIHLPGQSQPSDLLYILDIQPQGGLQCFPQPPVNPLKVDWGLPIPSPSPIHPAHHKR
T1 sequence (P05106 27-788): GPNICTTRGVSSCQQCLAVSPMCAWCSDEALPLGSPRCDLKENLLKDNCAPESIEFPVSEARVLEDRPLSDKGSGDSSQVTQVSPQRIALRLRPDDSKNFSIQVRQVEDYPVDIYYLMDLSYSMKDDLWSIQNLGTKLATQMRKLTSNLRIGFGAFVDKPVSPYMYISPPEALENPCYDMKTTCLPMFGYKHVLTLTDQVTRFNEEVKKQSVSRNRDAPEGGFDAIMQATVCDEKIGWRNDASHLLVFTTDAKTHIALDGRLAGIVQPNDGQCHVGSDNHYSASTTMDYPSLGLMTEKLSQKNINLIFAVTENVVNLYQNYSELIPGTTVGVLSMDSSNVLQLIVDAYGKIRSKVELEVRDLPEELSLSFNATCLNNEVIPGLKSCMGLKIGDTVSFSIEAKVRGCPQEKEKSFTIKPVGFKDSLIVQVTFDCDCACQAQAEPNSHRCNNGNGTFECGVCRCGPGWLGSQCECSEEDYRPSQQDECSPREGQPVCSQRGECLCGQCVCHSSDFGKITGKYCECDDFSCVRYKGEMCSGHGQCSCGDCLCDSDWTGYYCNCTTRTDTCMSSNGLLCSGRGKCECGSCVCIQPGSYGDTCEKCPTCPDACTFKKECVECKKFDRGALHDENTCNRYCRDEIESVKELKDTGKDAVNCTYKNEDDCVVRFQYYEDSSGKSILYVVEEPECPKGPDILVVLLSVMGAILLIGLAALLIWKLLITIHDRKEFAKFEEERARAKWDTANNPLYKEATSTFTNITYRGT
Description: A 96-well Maxisorp plate (Nunc) was coated with GPIIb/IIIa (10 μg mL^−1, 100 μL) and incubated at 4° C. overnight. The plate was washed (5×) with buffer (50 mM Tris-HCl, 100 mM NaCl, 2 mM CaCl2, 0.05% Tween20, pH 7.4). Blocking solution (3.5% BSA, 100 μL) was added to the well and incubated at 37° C. for 3 hours. The plate was washed (5×) with buffer. Peptides (50 μL) and fibrinogen (40nM, 50 μL) were added to the plate and incubated at room temperature for 3 hours. The plate was washed (5×) and antibody (goat polyclonal to fibrinogen (HRP), 1:20,000 dilution, 100 μL) was added to the plate and incubated for 1 hour at room temperature. The plate was washed (5×) and substrate (2,2′-azino-bis(3-ethylbenzthiazoline-6-sulphonic acid, ABTS, 100 μL) was added to the wells and allowed to react for 5 minutes. The absorbance was measured (Perkin Elmer Wallac Victor2 1420 Multilabel Counter) at 405 nm. The data was analyzed using Graphpad Prism 5.
Glycoprotein Iib-IIIa (GPIIb/IIIa) is present on platelets and its binding to fibrinogen has been associated with platelet aggregation.
A competitive binding ELISA was used to determine the potency of the multivalent RGD peptides. GPIIb/IIIa is known to contain the integrins αIIβ and β3, which bind RGD peptide sequences. Fibrinogen is also known to bind to these integrins. The ELISA was performed to quantitate the inhibition of bound fibrinogen in the presence of RGD peptide. The ELISA was performed as described previously.4 Briefly, GPIIb/IIIa was incubated in a 96 well Maxisorp plate (Nunc) (10 μg ml^−1) overnight at 4° C. The plate was blocked for non-specific interactions using BSA (3.5 wt%, 3 hr). Varying peptides concentrations and fibrinogen (40 nM) was incubated in the plate for 3 hr at room temperature. Fibrinogen antibody (HRP) (1:20,000 dilution) as added (1 hr). The substrate (2,2′-Azinobis[3-ethylbenzothiazoline-6-sulfonic acid]-diammonium salt-ABTS) was added and the absorbance measured at 405 nm. Peptide concentrations are reported as total molecule molarity as opposed to normalized [RGD].

MIN6 cells = MIN6 cells encapsulated in PEG diacrylate gels with RGD, metabolic activity by Alamar Blue assay; format: cell-based; details: FIG. 19; for MIN6 viability / cell survival: 100 μM RGD in PEG gel, 10-day study
Excerpt: To test whether cyclic RGD, when encapsulated in PEG gels may enhance the survival of MIN6 cells, cyclic RGD was incorporated into PEG gels and applied to cell cultures of MIN6 cells. A cyclic RGD dimer was synthesized on-resin using Traut's reagent. The dimer contained a free thiol, which could be utilized for conjugation into PEG networks via thiol-acrylate photopolymerizations.
To examine whether the cyclic RGD derivatives could enhance cell viability, MIN6 cells were encapsulated at a relatively low density (5×10^6 cells mL^−1, data not published) in PEG diacrylate gels with varying amounts of RGD. Cell metabolic activity was measured using an Alamar Blue assay. […] Total molar RGD concentration was held constant during the study.

Compound	IC50 (GPIIb/IIIa) [µM]	MIN6 viability / cell survival (MIN6 cells)	IC50 (GPIIb/IIIa; Table 2, mean ± SEM, triplicate, repeated twice, peptide concentration as total molecule molarity, not normalized [RGD], read-out: IC50(μM), inhibition of fibrinogen binding to GPIIb/IIIa) [µM]	MIN6 metabolic activity relative to linear counterpart at the same concentration (MIN6 cells; 400 μM RGD in PEG gel, 5×10^6 cells mL^−1)	potency relative to linear RGD (compound #1) (GPIIb/IIIa; competitive binding ELISA)
CC(=O)N[C@H]1CSC2CC3CC(C(=O)NCCCC[C@@H](C(N)=O)NC(=O)[C@@H](Cc4ccccc4)NC(=O)[C@H](CO)NC(=O)[C@H](CC(=O)O)NC(=O)CNC(=O)[C@H](CCCNC(=N)N)NC1=O)C2C3 (stereo partly shown) [Ac-c[CRGDSfK(Norbornene)]-NH2] (Ac-CRGDS[dF]K-NH2; linker 1-7 via X2)	0.36 ± 0.09				
H-CGGRGDS-NH2 [Compound #1, H-CGGRGDS-NH2]		not able to support cell survival	15.4 ± 4.2		
N=C(N)NCCC[C@@H]1NC(=O)[C@@H](NC(=O)CNC(=O)CNC(=O)[C@@H](N)CSCC(CCC(=O)NCCCC[C@H](NC(=O)CN)C(=O)NCC(=O)NCCCCCC(=O)NCC(=O)N[C@@H](CCCCNC(=O)CCC(CSC[C@H](N)C(=O)NCC(=O)NCC(=O)N[C@H]2CSCCCOC(=O)NCCCC[C@@H](C(N)=O)NC(=O)[C@@H](Cc3ccccc3)NC(=O)[C@H](CO)NC(=O)[C@H](CC(=O)O)NC(=O)CNC(=O)[C@H](CCCNC(=N)N)NC2=O)SC[C@H](N)C(=O)NCC(=O)NCC(=O)N[C@H]2CSCCCOC(=O)NCCCC[C@@H](C(N)=O)NC(=O)[C@@H](Cc3ccccc3)NC(=O)[C@H](CO)NC(=O)[C@H](CC(=O)O)NC(=O)CNC(=O)[C@H](CCCNC(=N)N)NC2=O)C(=O)NCC(N)=O)SC[C@H](N)C(=O)NCC(=O)NCC(=O)N[C@H]2CSCCCOC(=O)NCCCC[C@@H](C(N)=O)NC(=O)[C@@H](Cc3ccccc3)NC(=O)[C@H](CO)NC(=O)[C@H](CC(=O)O)NC(=O)CNC(=O)[C@H](CCCNC(=N)N)NC2=O)CSCCCOC(=O)NCCCC[C@@H](C(N)=O)NC(=O)[C@@H](Cc2ccccc2)NC(=O)[C@H](CO)NC(=O)[C@H](CC(=O)O)NC(=O)CNC1=O (stereo partly shown) [Compound #7]	0.012 ± 0.003				
N=C(N)NCCC[C@@H]1NC(=O)[C@@H](NC(=O)CNC(=O)CNC(=O)[C@@H](N)CS)CSCCCOC(=O)NCCCC[C@@H](C(N)=O)NC(=O)[C@@H](Cc2ccccc2)NC(=O)[C@H](CO)NC(=O)[C@H](CC(=O)O)NC(=O)CNC1=O [Compound #2, H-CGGc[CRGDSfK(Alloc)]-NH2] (H-CGGCRGDS[dF]K-NH2; linker 4-10 via X1)		increased viability		significantly enhanced metabolic activity	enhanced potency
